Laboratory results as given in patent publication US20100099676A1 (SHIONOGI & CO., LTD., priority 2006, published 2010).
pIC50: −log10 of the molar value.

Target: T1, MMP-13 (Homo sapiens, UniProt P45452)
T1 construct: purchased Calbiochem (EMD/MERCK Biosciences)
Assay: Enzyme inhibiting activity of MMPs, fluorogenic peptide substrate
Format: biochemical
Details: compounds not described in the Tables; read-out: inhibiting activity for MMP-13
Protocol: Various human MMPs (MMP-2, MMP-9 and MMP-13) were purchased from Calbiochem (EMD/MERCK Biosciences).
Since the purchased MMP-13 was Proenzyme, the activated one was used, which was incubated at 37° C. for 2 hours after the successive addition of an assay buffer (containing 50 mM Tris-HCl (pH7.6), 0.3 M NaCl, 10 mM CaCl2, 0.005% Brij35) and APMA (final concentration 1 mM) to the enzyme solution.
The enzyme activity of MMPs was measured according to the method described in C. Graham Knight, Frances Willenbrock and Gillian Murphy: A novel coumarin-labelled peptide for sensitive continuous assays of the matrix metalloproteinases: FEBS LETT., 296, (1992), 263-266. As a substrate, MOCAc-Pro-Leu-Gly-Leu-A2Pr(DNP)- Ala-Arg-NH2 (Peptide Institute, Inc. Osaka, Japan) was used, and the following four assays are performed per compound (inhibitor) for measuring the inhibiting activity.
(A) Substrate (synthetic substrate), enzyme (MMPs), inhibitor
(B) Substrate (synthetic substrate), inhibitor
(C) Substrate (synthetic substrate), enzyme (MMPs)
(D) Substrate (synthetic substrate)
In each assay, the fluorescent intensity was measured, and inhibition (%) was calculated by the following equation.
Inhibition (%)=[I−(A−B)/(C−D)]×100
IC50 indicates a concentration at which inhibition (%) is 50%.

| pIC50 | SMILES |
| --- | --- |
| > 8.00 | C[C@@H](NS(=O)(=O)N1CCN(c2ccc(C#Cc3cccc(C(=O)NCc4ccccc4)n3)cc2)CC1)C(=O)O [Compound I-18, (R)-2-{4-[4-(6-benzylcarbamoylpyridine 2-ylethynyl)-phenyl]-piperazine-1-sulfonylamino}-proponic acid] |
| > 8.00 | C[C@@H](NS(=O)(=O)N1CCN(c2ccc(C#Cc3ccnc(C(=O)NCc4ccccc4)c3)cc2)CC1)C(=O)O [Compound I-19, (R)-2-{4-[4-(2-benzylcarbamoylpyridin-4-ylethynyl)-phenyl]-piperazine-1-sulfonylamino}-proponic acid] |
| 7.00 to 8.00 | CCC[C@H](NS(=O)(=O)N1CCN(c2ccc(C#Cc3cccc(-c4ncc(C)o4)c3)cc2)CC1)C(=O)O [Compound I-26, (S)-2-(4-{4-[3-(5-methyloxazol-2-yl)-phenylethynyl]-phenyl}-piperazine-1-sulfonylamino)-pentanoic acid] |
| 7.00 to 8.00 | Cc1cnc(-c2cccc(C#Cc3ccc(N4CCN(S(=O)(=O)N[C@@H](C(=O)O)C(C)C)CC4)cc3)c2)o1 [Compound I-27, (R)-3-methyl-2-(4-{4-[3-(5-methyloxazol-2-yl)-phenylethynyl]-phenyl}-piperazine-1-sulfonylamino)-butanoic acid] |
| > 8.00 | Cc1cc(CNC(=O)c2cccc(C#Cc3ccc(N4CCN(S(=O)(=O)N[C@H](C)C(=O)O)CC4)cc3)c2)ccc1F [Compound I-28, (R)-2-(4-{4-[3-(4-fluoro3-methylbenzylcarbamoyl)-phenylethynyl]-phenyl}-piperazine-1-sulfonylamino)-proponic acid] |
| 7.00 to 8.00 | Cc1cc(CNC(=O)c2cccc(/C=C/c3ccc(N4CCN(S(=O)(=O)N[C@H](C)C(=O)O)CC4)cc3)c2)ccc1F [Compound I-29, (R)-2-[4-(4-{(E)-2-[3-(4-fluoro3-methylbenzylcarbamoyl)-phenyl]-vinyl}-phenyl)-piperazine-1-sulfonylamino]-proponic acid] |
| > 8.00 | C[C@@H](NS(=O)(=O)N1CCN(c2ccc(C#Cc3cccc(C(=O)NCc4ccc(Cl)cc4)c3)cc2)CC1)C(=O)O [Compound I-32, (R)-2-(4-{4-[3-(4-chlorobenzylcarbamoyl)-phenylethynyl]-phenyl}-piperazine-1-sulfonylamino)-proponic acid] |
| 7.00 to 8.00 | CC(C)C[C@H](NS(=O)(=O)N1CCN(c2ccc(C#Cc3ccc4cccc(C(N)=O)c4c3)cc2)CC1)C(=O)O [Compound I-55, (S)-2-{4-[4-(8-carbamoylnaphthalen-2-ylethynyl)-phenyl]-piperazine-1-sulfonylamino}-4-methylpentanoic acid] |
| > 8.00 | C[C@@H](NS(=O)(=O)N1CCN(c2ccc(C#Cc3ccc4cccc(C(=O)NCCF)c4c3)cc2)CC1)C(=O)O [Compound I-56, (R)-2-(4-{4-[8-(2-fluoroethylcarbamoyl)-naphthalen-2-ylethynyl]-phenyl}-piperazine-1-sulfonylamino)-proponic acid] |
| 7.00 to 8.00 | CC(C)[C@H](NS(=O)(=O)N1CCN(c2ccc(C#Cc3ccc4cccc(C(N)=O)c4c3)cc2)CC1)C(=O)O [Compound I-58, (S)-2-{4-[4-(8-carbamoylnaphthalen-2-ylethynyl)-phenyl]-piperazine-1-sulfonylamino}-3-methylbutanoic acid] |
| 7.00 to 8.00 | CCC[C@H](NS(=O)(=O)N1CCN(c2ccc(/C=C/c3ccc4cccc(C(N)=O)c4c3)cc2)CC1)C(=O)O [Compound I-59, (S)-2-(4-{4-[(E)-2-(8-carbamoylnaphthalen-2-yl)-vinyl]-phenyl}-piperazine-1-sulfonylamino)-pentanoic acid] |
| 7.00 to 8.00 | CC(C)C[C@@H](NS(=O)(=O)N1CCN(c2ccc(C#Cc3ccc4cccc(C(N)=O)c4c3)cc2)CC1)C(=O)O [Compound I-60, (R)-2-{4-[4-(8-carbamoylnaphthalen-2-ylethynyl)-phenyl]-piperazine-1-sulfonylamino}-4-methylpentanoic acid] |
| > 8.00 | C[C@@H](NS(=O)(=O)N1CCN(c2ccc(C#Cc3ccc4cccc(/C=C/C#N)c4c3)cc2)CC1)C(=O)O [Compound I-67, (R)-2-(4-{4-[8-((E)-2-cyanovinyl)-naphthalen-2-ylethynyl]-phenyl}-piperazine-1-sulfonylamino)-proponic acid] |
| > 8.00 | C[C@@H](NS(=O)(=O)N1CCN(c2ccc(C#Cc3ccc4cccc(/C=C/C(N)=O)c4c3)cc2)CC1)C(=O)O [Compound I-68, (R)-2-(4-{4-[8-((E)-2-carbamoylvinyl)-naphthalen-2-ylethynyl]-phenyl}-piperazine-1-sulfonylamino)-proponic acid] |
| 7.00 to 8.00 | C[C@@H](NS(=O)(=O)N1CCN(c2ccc(C#Cc3ccc4cccc(/C=C\C#N)c4c3)cc2)CC1)C(=O)O [Compound I-69, (R)-2-(4-{4-[8-((Z)-2-cyanovinyl)-naphthalen-2-ylethynyl]-phenyl}-piperazine-1-sulfonylamino)-proponic acid] |
| > 8.00 | C[C@@H](NS(=O)(=O)N1CCN(c2ccc(C#Cc3ccc4cccc(/C=C/c5nnn[nH]5)c4c3)cc2)CC1)C(=O)O [Compound I-71] |
| 7.00 to 8.00 | C[C@@H](NS(=O)(=O)N1CCN(c2ccc(C#Cc3ccc4cccc(/C=C/Cl)c4c3)cc2)CC1)C(=O)O [Compound I-72, (R)-2-(4-{4-[8-((E)-2-chlorovinyl)-naphthalen-2-ylethynyl]-phenyl}-piperazine-1-sulfonylamino)-proponic acid] |
| 7.00 to 8.00 | CC(C)NS(=O)(=O)c1cccc2ccc(C#Cc3ccc(N4CCN(S(=O)(=O)N[C@H](C)C(=O)O)CC4)cc3)cc12 [Compound I-80, (R)-2-{4-[4-(8-isopropylsulfamoylnaphthalen-2-ylethynyl)-phenyl]-piperazine-1-sulfonylamino}-proponic acid] |
| 7.00 to 8.00 | C[C@@H](NS(=O)(=O)N1CCN(c2ccc(C#Cc3ccc4cccc(S(N)(=O)=O)c4c3)cc2)CC1)C(=O)O [Compound I-81, (R)-2-{4-[4-(8-sulfamoylnaphthalen-2-ylethynyl)-phenyl]-piperazine-1-sulfonylamino}-proponic acid] |
| 7.00 to 8.00 | CSc1cccc2ccc(C#Cc3ccc(N4CCN(S(=O)(=O)N[C@H](C)C(=O)O)CC4)cc3)cc12 [Compound I-82, (R)-2-{4-[4-(8-methylsulfanylnaphthalen-2-ylethynyl)-phenyl]-piperazine-1-sulfonylamino}-proponic acid] |
| 7.00 to 8.00 | C[C@@H](NS(=O)(=O)N1CCN(c2ccc(C#Cc3ccc4cccc(S(C)(=O)=O)c4c3)cc2)CC1)C(=O)O [Compound I-83, (R)-2-{4-[4-(8-methanesulfonylnaphthalen-2-ylethynyl)-phenyl]-piperazine-1-sulfonylamino}-proponic acid] |
| 7.00 to 8.00 | CCC[C@H](NS(=O)(=O)N1CCN(c2ccc(C#Cc3ccc4cccc(C(N)=O)c4c3)cc2)CC1)C(=O)O [Compound I-92, (S)-2-{4-[4-(8-carbamoylnaphthalen-2-ylethynyl)-phenyl]-piperazine-1-sulfonylamino}-pentanoic acid] |

| SMILES | pIC50 |
| --- | --- |
| C[C@@H](NS(=O)(=O)N1CCN(c2ccc(C#Cc3ccc4cccc(C(=O)NCCNC(=O)OC(C)(C)C)c4c3)cc2)CC1)C(=O)O [Compound I-62, (R)-2-(4-{4-[8-(2-tert-butoxycarbonylaminoethylcarbamoyl)-naphthalen-2-ylethynyl]-phenyl}-piperazine-1-sulfonylamino)-proponic acid] | 7.00 to 8.00 |
